2 substances from patent US6391575B1, “Methods for detecting membrane derived caspase activity and modulators thereof” (IDUN Pharmaceuticals, Inc., priority 1999, dated 2002) can be followed below.

In experiment [1] the test system is caspase-3 in cytoplasmic fractions (697-neo and 697-Bcl-2 cells). Nature of the experiment: Effect of exogenous cytochrome c on cytoplasmic fraction caspase activity. It counts as biochemical, human. The note with it: cytochrome c during fractionation and assay; neo and Bcl-2 cells; FIG. 6B. The method, then:
(§1) Frozen cell pellets containing ≈10^9 cells were thawed and resuspended in cold hypotonic buffer (10 mM Na-HEPES, 5 mM MgCl2, 42 mM KCl, pH 7.4) supplemented with 1 mM PMSF, 1 μg/ml leupeptin, 1 μg/ml pepstatin A, 5 μg/ml aprotinin, 0.1 mM EDTA, 0.1 mM EGTA and 5 mM DTT (Sigma) to a density of ≈1.5×10^8 cells/ml. The samples were incubated on ice for 30 min at which time the cells were lysed using 30-40 strokes with a Dounce homogenizer. The sample was centrifuged twice for 10 min at 500×g, 4° C. to separate the nuclei. The nuclear pellets were then washed twice in the same buffer supplemented with 1.6M sucrose, yielding the nuclear fraction. The supernatant was then centrifuged at 14,000×g for 30 min at 4° C. to pellet the heavy membranes. […] Protein concentrations were measured using Protein Assay Kit II from BioRad with bovine serum albumin as the calibration standard. […]
(§2) Heavy membrane samples were diluted to 1 mg/ml in hypotonic buffer or in 0.25 M sucrose, 10 mM MOPS, 2 mM EDTA, pH 7.4 (Mancini, et al., 1998) containing 5 mM DTT with or without 1% NP-40. […] To examine the time course of spontaneous activation of caspase activity from membranes, 50 μl of heavy membrane slurry containing 50-100 μg total protein was mixed with 200 μl hypotonic buffer containing 25 μM DEVD-amc substrate and 6 mM DTT in 96 well Cytofluor plates and fluorescence was measured over time. […]

Experiment [2] relates to membrane-associated procaspase-3 (697-neo and 697-Bcl-2 heavy membranes). Nature of the experiment: Effect of exogenous cytochrome c on heavy membrane caspase activity. Particulars: 10 μg/ml bovine cytochrome c during fractionation; 1 μg/ml cytochrome c plus dATP, 40 min at 30° C.; FIG. 6A. The class given is biochemical, human. As for the experimental part:
as §1, §2

In experiment [3] the target is T1, membrane-derived caspases (Homo sapiens, UniProt P42574).
T1 construct: endogenous in cells
T1 sequence (P42574 29-175 limits assumed): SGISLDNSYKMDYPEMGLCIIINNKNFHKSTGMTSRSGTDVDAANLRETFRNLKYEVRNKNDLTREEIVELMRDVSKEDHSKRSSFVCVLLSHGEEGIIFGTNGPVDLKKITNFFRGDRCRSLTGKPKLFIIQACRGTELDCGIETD
T1 sequence (P42574 176-277 limits assumed): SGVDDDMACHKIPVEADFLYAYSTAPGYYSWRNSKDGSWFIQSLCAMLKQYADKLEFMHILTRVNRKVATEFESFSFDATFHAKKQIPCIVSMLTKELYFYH
In words: Kinetics of DEVD-amc hydrolysis by membrane-derived caspases. It counts as biochemical. The note with it: substrate concentration varied 1-100 μM. As for the experimental part:
Caspase activity was measured by mixing 50 μl of an enzyme-containing fraction and 200 μl of 25 μM DEVD-amc (Asp-Glu-Val-Asp-aminomethylcoumarin) substrate in ICE buffer (20 mM HEPES, 1 mM EDTA, 0.1% CHAPS, 10% sucrose, 5 mM DTT, pH 7.5) in duplicate Cytoplate wells. Product formation was monitored by the increase in fluorescence (ex=360 nm, em=460 nm) over 1-2 hours at 30 ° C. using the CytoFluor 4000 plate reader (Perseptive Biosystems, Framingham, Mass.). For kinetic studies, the substrate concentration was varied in the range 1-100 μM. For inhibition studies the enzyme was pretreated with 150 μl inhibitor for 30 min at room temperature prior to the addition of 50 μl of 50 μM substrate solution. Inhibitor IC50 values were determined using the equation: […]
The membrane-derived caspase activities were further characterized by measuring the inhibition of DEVD-amc cleavage by several peptide aldehyde inhibitors (Table I). […] The observed IC50 values for the membrane associated caspases are very similar to those for purified fully-processed recombinant human caspase-3. […] N-terminal microsequence analysis of activated, affinity purified heavy membrane caspase confirms that this enzyme is indeed human caspase-3.

Take “cytochrome c: bovine cytochrome c (Sigma)”: in experiment [1], the “Effect on DEVD-amc cleavage activity of cytoplasmic fractions” value was “strongly activated”. In experiment [2], the “Effect on membrane-derived caspase activity (DEVD-amc cleavage)” value is “no effect”.
The term Km denotes the concentration of substrate that gives half-maximal velocity. As for “Acetyl-Asp-Glu-Val-Asp-aminomethylcoumarin [DEVD-amc]”, the Km in experiment [3] came out at 10 µM.
